Experimental data: patent US20250084056A1, “SUBSTITUTED OXOISOINDOLINYL PIPERIDINE-2,6-DIONE COMPOUNDS” (BRISTOL-MYERS SQUIBB COMPANY, priority 2023, published 2025)

Assays:
Assay type in all cases: cell-based
[1] = test system: Phospho-Rb (Ser807/811); assay: Phospho-Retinoblastoma (pRB) Cellular Assay; settings: Homo sapiens, OVCAR-3, NIH OVCAR3 cells, 24 hours; for IC50: concentration giving 50% response; for Emax: maximum response, reference compound at 10 μM = 100%, read-out: pRB Ymax
Outline: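 Phospho-Rb (Ser807/811) kit read-out on EnVision after lysis (≥4 h, room temperature, dark) of OVCAR3 cells exposed to compound dilutions for 24 h. IC50 and maximum response Ymax are relative to a 10 μM reference compound defining 100%.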

[2] = target: GSPT1 (Homo sapiens, UniProt P15170+Q96SW2); assay: GSPT1 Cellular Degradation Assay (DF15-GSPT1-ePL); design: expressed in transfected cells; settings: DF15-GSPT1-ePL cells, 20 hours
Chain of GSPT1 (P15170 whole entry, the tested form may be a part): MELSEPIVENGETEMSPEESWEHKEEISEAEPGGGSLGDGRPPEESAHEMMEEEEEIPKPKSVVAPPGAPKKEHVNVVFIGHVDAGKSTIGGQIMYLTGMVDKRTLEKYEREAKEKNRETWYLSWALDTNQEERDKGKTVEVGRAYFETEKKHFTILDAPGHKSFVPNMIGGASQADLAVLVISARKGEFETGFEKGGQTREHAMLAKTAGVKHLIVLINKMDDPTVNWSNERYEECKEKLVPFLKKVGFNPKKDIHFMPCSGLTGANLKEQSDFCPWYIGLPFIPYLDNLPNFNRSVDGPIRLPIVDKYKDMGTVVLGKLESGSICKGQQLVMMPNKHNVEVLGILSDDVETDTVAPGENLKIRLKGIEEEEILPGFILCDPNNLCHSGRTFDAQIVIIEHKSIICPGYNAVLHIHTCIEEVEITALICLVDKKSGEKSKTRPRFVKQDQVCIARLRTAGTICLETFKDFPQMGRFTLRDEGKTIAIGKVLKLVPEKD
Chain of GSPT1 (Q96SW2 whole entry, the tested form may be a part): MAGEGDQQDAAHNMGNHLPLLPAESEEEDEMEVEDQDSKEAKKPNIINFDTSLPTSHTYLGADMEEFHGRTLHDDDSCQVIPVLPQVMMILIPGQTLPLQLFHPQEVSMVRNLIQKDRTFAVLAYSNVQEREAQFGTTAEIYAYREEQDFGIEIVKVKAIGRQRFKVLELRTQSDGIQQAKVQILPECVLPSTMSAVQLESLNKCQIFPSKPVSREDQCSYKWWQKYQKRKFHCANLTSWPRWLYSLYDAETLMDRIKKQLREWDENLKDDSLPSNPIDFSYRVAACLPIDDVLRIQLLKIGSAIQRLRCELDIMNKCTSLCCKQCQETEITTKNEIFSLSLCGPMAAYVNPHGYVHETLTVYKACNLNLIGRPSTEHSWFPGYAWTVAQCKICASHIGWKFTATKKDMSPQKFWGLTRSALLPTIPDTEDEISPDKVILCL
Chain of GSPT1 (Q16531 whole entry partner, the tested form may be a part): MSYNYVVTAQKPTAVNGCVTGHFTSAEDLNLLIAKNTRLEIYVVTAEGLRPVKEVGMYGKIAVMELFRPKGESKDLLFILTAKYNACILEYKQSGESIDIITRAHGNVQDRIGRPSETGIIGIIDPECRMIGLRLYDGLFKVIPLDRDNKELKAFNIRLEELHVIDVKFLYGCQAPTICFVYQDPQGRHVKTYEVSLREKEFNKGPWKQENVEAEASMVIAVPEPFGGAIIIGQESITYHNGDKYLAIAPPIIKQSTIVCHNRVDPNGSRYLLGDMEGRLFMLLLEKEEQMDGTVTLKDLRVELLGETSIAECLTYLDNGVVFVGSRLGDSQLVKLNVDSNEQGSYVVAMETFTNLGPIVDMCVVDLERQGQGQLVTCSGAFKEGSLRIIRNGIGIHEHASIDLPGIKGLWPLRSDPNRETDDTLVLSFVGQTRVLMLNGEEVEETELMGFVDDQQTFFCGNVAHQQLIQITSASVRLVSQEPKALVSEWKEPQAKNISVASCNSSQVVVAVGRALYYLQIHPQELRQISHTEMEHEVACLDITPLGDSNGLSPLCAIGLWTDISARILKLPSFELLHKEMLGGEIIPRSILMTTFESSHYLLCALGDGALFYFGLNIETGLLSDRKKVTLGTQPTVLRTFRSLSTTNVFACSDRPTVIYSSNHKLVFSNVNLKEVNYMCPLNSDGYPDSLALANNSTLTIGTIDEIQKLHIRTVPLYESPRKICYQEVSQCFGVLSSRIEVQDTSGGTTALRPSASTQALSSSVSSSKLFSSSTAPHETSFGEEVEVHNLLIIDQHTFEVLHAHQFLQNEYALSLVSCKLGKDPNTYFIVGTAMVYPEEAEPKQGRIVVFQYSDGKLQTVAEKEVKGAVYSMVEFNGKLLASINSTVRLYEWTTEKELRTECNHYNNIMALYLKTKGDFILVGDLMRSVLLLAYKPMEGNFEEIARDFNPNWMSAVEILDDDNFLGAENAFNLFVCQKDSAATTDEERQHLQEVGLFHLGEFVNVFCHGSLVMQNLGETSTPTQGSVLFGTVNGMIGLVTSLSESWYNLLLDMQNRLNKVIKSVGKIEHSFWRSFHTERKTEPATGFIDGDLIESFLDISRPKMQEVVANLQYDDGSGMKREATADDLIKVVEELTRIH
Outline: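 DC50 and Dmax were derived from chemiluminescence, with 75% response set by the reference compound at […]. Readout was ePL enzyme-fragment complementation in a DF15 line expressing chimeric GSPT1. Cells were exposed to compound for 20 h at 37 °C in RPMI 1640 with 10% FBS, cooled 30 min, then lysed with substrate for 60 min.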

[3] = target: Cyclin E1 (Homo sapiens, UniProt P24864+Q96SW2); assay: Cyclin E1 Cellular Degradation Assay (MSD); design: endogenous in cells; host or cells: OVCAR3; settings: for DC50 / Dmax: Cyclin E1 cellular degradation; for Dmax: maximum degradation; for Ratio of GSPT1 DC50/Cyclin E1 DC50: selectivity for degradation of Cyclin E1 over GSPT1
Chain of Cyclin E1 (P24864 whole entry): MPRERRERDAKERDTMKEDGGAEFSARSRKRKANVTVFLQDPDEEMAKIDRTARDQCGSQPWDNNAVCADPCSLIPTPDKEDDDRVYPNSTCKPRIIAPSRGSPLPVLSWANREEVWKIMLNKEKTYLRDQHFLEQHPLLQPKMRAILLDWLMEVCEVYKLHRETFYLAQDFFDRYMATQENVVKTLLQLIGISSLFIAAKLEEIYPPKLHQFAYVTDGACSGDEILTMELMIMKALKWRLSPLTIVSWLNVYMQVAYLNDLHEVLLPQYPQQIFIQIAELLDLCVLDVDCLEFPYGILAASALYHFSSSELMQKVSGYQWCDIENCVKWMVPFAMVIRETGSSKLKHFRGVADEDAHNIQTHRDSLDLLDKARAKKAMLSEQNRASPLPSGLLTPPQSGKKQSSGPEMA
Chain of Cyclin E1 (Q96SW2 whole entry): as the sequence (Q96SW2 whole entry, the tested form may be a part) above
Chain of Cyclin E1 (Q16531 whole entry partner): as the sequence (Q16531 whole entry partner, the tested form may be a part) above
Outline: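 Cyclin E1 remaining after 24 h compound exposure of OVCAR3 cells was quantified in lysates by electrochemiluminescent MSD sandwich assay. DC50 (50% response concentration) and Dmax (maximum response) were calculated, with 110% response set by a reference compound at […].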

SMILES | IC50 [1] | Emax [1] | DC50 [2] | Dmax [2] | DC50 [3] | Dmax [3] | Ratio of GSPT1 DC50/Cyclin E1 DC50 [3]
COc1c(COC(=O)Nc2ccc(Oc3cccc4ccccc34)cc2)ccc2c1C(=O)N(C1CCC(=O)NC1=O)C2 (centres unmarked) [Example 113, [2-(2,6-dioxopiperidin-3-yl)-4-methoxy-3-oxo-2,3-dihydro-1H-isoindol-5-yl]methyl N-[4-(naphthalen-1-yloxy)phenyl]carbamate] | 99 nM | 93% | > 14000 nM | 37% | 190 nM | 113% | >74
COc1c(COC(=O)Nc2ccc(Oc3ccc4sccc4c3)cc2)ccc2c1C(=O)N(C1CCC(=O)NC1=O)C2 (centres unmarked) [Example 114, [2-(2,6-dioxopiperidin-3-yl)-4-methoxy-3-oxo-2,3-dihydro-1H-isoindol-5-yl]methyl N-[4-(1-benzothiophen-5-yloxy)phenyl]carbamate] | 640 nM | 110% | > 14000 nM | 29% | 282 nM | 106% | >50
COc1c(COC(=O)Nc2ccc(Oc3ccc4ccsc4c3)cc2)ccc2c1C(=O)N(C1CCC(=O)NC1=O)C2 (centres unmarked) [Example 115, [2-(2,6-dioxopiperidin-3-yl)-4-methoxy-3-oxo-2,3-dihydro-1H-isoindol-5-yl]methyl N-[4-(1-benzothiophen-6-yloxy)phenyl]carbamate] | 247 nM | 114% | 10300 nM | 63% | 217 nM | 108% | 48
COc1c(COC(=O)Nc2ccc(Oc3cccc(Cl)c3Cl)cc2F)ccc2c1C(=O)N(C1CCC(=O)NC1=O)C2 (centres unmarked) [Example 116, [2-(2,6-dioxopiperidin-3-yl)-4-methoxy-3-oxo-2,3-dihydro-1H-isoindol-5-yl]methyl N-[4-(2,3-dichlorophenoxy)-2-fluorophenyl]carbamate] | 73 nM | 107% | > 14000 nM | 43% | 87 nM | 110% | >160
COc1c(COC(=O)Nc2ccc(Oc3ccc(Cl)c(Cl)c3)cc2F)ccc2c1C(=O)N(C1CCC(=O)NC1=O)C2 (centres unmarked) [Example 117, [2-(2,6-dioxopiperidin-3-yl)-4-methoxy-3-oxo-2,3-dihydro-1H-isoindol-5-yl]methyl N-[4-(3,4-dichlorophenoxy)-2-fluorophenyl]carbamate] | 115 nM | 108% | > 14000 nM | 28% | 104 nM | 108% | >135
COc1c(COC(=O)Nc2ccc(Oc3cc(Cl)cc(Cl)c3)cc2F)ccc2c1C(=O)N(C1CCC(=O)NC1=O)C2 (centres unmarked) [Example 118, [2-(2,6-dioxopiperidin-3-yl)-4-methoxy-3-oxo-2,3-dihydro-1H-isoindol-5-yl]methyl N-[4-(3,5-dichlorophenoxy)-2-fluorophenyl]carbamate] | 299 nM | 105% | > 14000 nM | 24% | 417 nM | 96% | >34
CC(C)Oc1c(COC(=O)Nc2ccc(Oc3ccc(F)c(F)c3)cc2F)ccc2c1C(=O)N(C1CCC(=O)NC1=O)C2 (centres unmarked) [Example 119, [2-(2,6-dioxopiperidin-3-yl)-3-oxo-4-(propan-2-yloxy)-2,3-dihydro-1H-isoindol-5-yl]methyl N-[4-(3,4-difluorophenoxy)-2-fluorophenyl]carbamate] | 54 nM | 111% | > 14000 nM | 10% | 116 nM | 107% | >120
CC(C)Oc1c(COC(=O)Nc2ccc(Oc3cccc(F)c3F)cc2)ccc2c1C(=O)N(C1CCC(=O)NC1=O)C2 (centres unmarked) [Example 120, [2-(2,6-dioxopiperidin-3-yl)-3-oxo-4-(propan-2-yloxy)-2,3-dihydro-1H-isoindol-5-yl]methyl N-[4-(2,3-difluorophenoxy)phenyl]carbamate] | 55 nM | 121% | > 14000 nM | 6% | 148 nM | 108% | >95
CC(C)Oc1c(COC(=O)Nc2ccc(Oc3ccccc3F)cc2)ccc2c1C(=O)N(C1CCC(=O)NC1=O)C2 (centres unmarked) [Example 121, [2-(2,6-dioxopiperidin-3-yl)-3-oxo-4-(propan-2-yloxy)-2,3-dihydro-1H-isoindol-5-yl]methyl N-[4-(2-fluorophenoxy)phenyl]carbamate] | 40 nM | 125% | > 14000 nM | 9% | 53 nM | 107% | >263
CC(C)Oc1c(COC(=O)Nc2ccc(Oc3ccccc3Cl)cc2)ccc2c1C(=O)N(C1CCC(=O)NC1=O)C2 (centres unmarked) [Example 122, [2-(2,6-dioxopiperidin-3-yl)-3-oxo-4-(propan-2-yloxy)-2,3-dihydro-1H-isoindol-5-yl]methyl N-[4-(2-chlorophenoxy)phenyl]carbamate] | 54 nM | 122% | > 14000 nM | 16% | 61 nM | 106% | >230
CC(C)Oc1c(COC(=O)Nc2ccc(Oc3cccc(F)c3)cc2)ccc2c1C(=O)N(C1CCC(=O)NC1=O)C2 (centres unmarked) [Example 123, [2-(2,6-dioxopiperidin-3-yl)-3-oxo-4-(propan-2-yloxy)-2,3-dihydro-1H-isoindol-5-yl]methyl N-[4-(3-fluorophenoxy)phenyl]carbamate] | 110 nM | 121% | > 14000 nM | 4% | 131 nM | 107% | >107
CC(C)Oc1c(COC(=O)Nc2ccc(Oc3ccc(F)cc3Cl)cc2)ccc2c1C(=O)N(C1CCC(=O)NC1=O)C2 (centres unmarked) [Example 124, [2-(2,6-dioxopiperidin-3-yl)-3-oxo-4-(propan-2-yloxy)-2,3-dihydro-1H-isoindol-5-yl]methyl N-[4-(2-chloro-4-fluorophenoxy)phenyl]carbamate] | 163 nM | 121% | > 14000 nM | 15% | 195 nM | 103% | >72
O=C1CCC(N2Cc3ccc(COC(=O)Nc4ccc(Oc5ccc(F)c(F)c5)cc4)c(OC4CCC4)c3C2=O)C(=O)N1 (centres unmarked) [Example 126, [4-cyclobutoxy-2-(2,6-dioxopiperidin-3-yl)-3-oxo-2,3-dihydro-1H-isoindol-5-yl]methyl N-[4-(3,4-difluorophenoxy)phenyl]carbamate] | 117 nM | 129% | > 14000 nM | 9% | 140 nM | 107% | >100
O=C1CCC(N2Cc3ccc(COC(=O)Nc4ccc(Oc5ccccc5Cl)cc4)c(OC4CCC4)c3C2=O)C(=O)N1 (centres unmarked) [Example 127, [4-cyclobutoxy-2-(2,6-dioxopiperidin-3-yl)-3-oxo-2,3-dihydro-1H-isoindol-5-yl]methyl N-[4-(2-chlorophenoxy)phenyl]carbamate] | 48 nM | 121% | > 14000 nM | 8% | 126 nM | 105% | >111
O=C1CCC(N2Cc3ccc(COC(=O)Nc4ccc(Oc5ccc(F)cc5Cl)cc4)c(OC4CCC4)c3C2=O)C(=O)N1 (centres unmarked) [Example 128, [4-cyclobutoxy-2-(2,6-dioxopiperidin-3-yl)-3-oxo-2,3-dihydro-1H-isoindol-5-yl]methyl N-[4-(2-chloro-4-fluorophenoxy)phenyl]carbamate] | 136 nM | 124% | > 14000 nM | 10% | 101 nM | 106% | >139
O=C1CCC(N2Cc3ccc(COC(=O)Nc4ccc(Oc5ccc(F)c(F)c5)cc4)c(OC4COC4)c3C2=O)C(=O)N1 (centres unmarked) [Example 129, [2-(2,6-dioxopiperidin-3-yl)-4-(oxetan-3-yloxy)-3-oxo-2,3-dihydro-1H-isoindol-5-yl]methyl N-[4-(3,4-difluorophenoxy)phenyl]carbamate] | 187 nM | 117% | > 14000 nM | 19% | 221 nM | 107% | >63
O=C1CCC(N2Cc3ccc(COC(=O)Nc4ccc(Oc5ccc(F)c(F)c5)cc4)c(OC4CCOCC4)c3C2=O)C(=O)N1 (centres unmarked) [Example 130, [2-(2,6-dioxopiperidin-3-yl)-4-(oxan-4-yloxy)-3-oxo-2,3-dihydro-1H-isoindol-5-yl]methyl N-[4-(3,4-difluorophenoxy)phenyl]carbamate] | 22 nM | 119% | > 14000 nM | 19% | 19 nM | 106% | >738
